In patent publication US5162347A, “Piperidine derivatives and therapeutic and preventive agents for arrhythmia containing same” (Eisai Co., Ltd., priority 1987, dated 1992):

Experiments:
[1] = tested on: isolated myocardium of guinea-pigs (right ventricular papillary muscles); assay: Effects on the action potential duration in the isolated myocardium of guinea-pigs; type: cell-based, guinea-pigs (male, Hartley strain); conditions: Cavia porcellus, 10 min, stimulated at 1 Hz, 37° C.; for APD90 prolongation (%) at 10 µM / inhibition at 10 µM: 10^-5 M, another 10 min; for inhibition at 10 µM / inhibition at 1 µM: read-out: Vmax inhibition (%); for APD90 prolongation (%) at 1 µM / inhibition at 1 µM: 10^-6 M, first 10 min
Procedure: Right ventricular papillary muscles were isolated from male guinea-pigs of Hartley strain weighing 300 to 400 g and fixed at the bottom of an acrylic bath with pins. They were perfused with Tyrode solution kept at 37° C. and saturated with a mixture of 95% O2 and 5% CO2. The muscles were stimulated at 1 Hz with rectangular pulses of 1 msec duration and supramaximal voltage. Action potentials were recorded using conventional glass microelectrodes filled with 3M KCl. The duration of the action potential and the maximum velocity of the upstroke of the action potential (Vmax) were determined. Each of the test compounds was included in Tyrode solution at 10^-6 or 10^-5 M and perfused.
The test compounds shown in Example 1 were as follows. Sotalol, a beta-adrenoceptor antagonist was employed as the reference drug because this compound is known to prolong the duration of the myocardial action potential.
Results are shown below in terms of APD90 prolongation (%) and Vmax inhibition (%).

[2] = Acute toxicity test, intravenous injection in mice; conditions: mouse, in vivo, male ddy mice weighing 20 to 30 g
Procedure: Acute toxicity tests of typical compounds (the above-mentioned compounds A and B) of the present invention were conducted by applying them to male ddy mice weighing 20 to 30 g by intravenous injection.
Acute toxicity tests of typical compounds (the above-mentioned compounds A to E) of the present invention were conducted by applying them to male ddy mice weighing 20 to 30 g by intravenous injection.

Structure (SMILES): CC(C)NCC(O)c1ccc(NS(C)(=O)=O)cc1 (centres unmarked) [Sotalol, reference compound]
- APD90 prolongation (%) at 10 µM [1]: 7%
- inhibition at 10 µM [1]: 0%
- APD90 prolongation (%) at 1 µM [1]: 0%
- inhibition at 1 µM [1]: 0%

Structure (SMILES): CS(=O)(=O)Nc1ccc(SC2CCN(CCc3cccnc3)CC2)cc1 [compound (1) A]
- LD50 [2]: 180 to 400 mg/kg
- APD90 prolongation (%) at 10 µM [1]: 20%
- inhibition at 10 µM [1]: 0%
- APD90 prolongation (%) at 1 µM [1]: 11%
- inhibition at 1 µM [1]: 0%

Structure (SMILES): CS(=O)(=O)Nc1ccc([S+]([O-])C2CCN(CCc3cccnc3)CC2)cc1 (centres unmarked) [compound (1) B]
- LD50 [2]: 180 to 400 mg/kg
- APD90 prolongation (%) at 10 µM [1]: 40%
- inhibition at 10 µM [1]: 0%
- APD90 prolongation (%) at 1 µM [1]: 14%
- inhibition at 1 µM [1]: 0%

Structure (SMILES): Cc1cccc(CCN(C)CC(=O)c2ccc(NS(C)(=O)=O)cc2)n1 [compound (2) A]
- APD90 prolongation (%) at 10 µM [1]: 16%
- inhibition at 10 µM [1]: 0%
- APD90 prolongation (%) at 1 µM [1]: 12%
- inhibition at 1 µM [1]: 0%

Structure (SMILES): Cc1cccc(CCN(C)CCC(=O)c2ccc(NS(C)(=O)=O)cc2)n1 [compound (2) B]
- APD90 prolongation (%) at 10 µM [1]: 19%
- inhibition at 10 µM [1]: 0%
- APD90 prolongation (%) at 1 µM [1]: 18%
- inhibition at 1 µM [1]: 0%

Structure (SMILES): Cc1cccc(CCN(C)CCCC(=O)c2ccc(NS(C)(=O)=O)cc2)n1 [compound (2) C]
- APD90 prolongation (%) at 10 µM [1]: 31%
- inhibition at 10 µM [1]: 0%
- APD90 prolongation (%) at 1 µM [1]: 17%
- inhibition at 1 µM [1]: 0%

Structure (SMILES): CCN(CCCC(=O)c1ccc(NS(C)(=O)=O)cc1)CCc1cccc(C)n1 [compound (2) D]
- APD90 prolongation (%) at 10 µM [1]: 31%
- inhibition at 10 µM [1]: 0%
- APD90 prolongation (%) at 1 µM [1]: 17%
- inhibition at 1 µM [1]: 0%

Structure (SMILES): Cc1cccc(CCN(C)CCCCC(=O)c2ccc(NS(C)(=O)=O)cc2)n1 [compound (2) E]
- APD90 prolongation (%) at 10 µM [1]: 27%
- inhibition at 10 µM [1]: 0%
- APD90 prolongation (%) at 1 µM [1]: 14%
- inhibition at 1 µM [1]: 0%

Structure (SMILES): CS(=O)(=O)Nc1ccc(C(CO)N2CCC(C(=O)c3ccc(F)cc3)CC2)cc1 (centres unmarked) [compound (3) A]
- LD50 [2]: 180 to 400 mg/kg
- APD90 prolongation (%) at 10 µM [1]: 25%
- inhibition at 10 µM [1]: 0%
- APD90 prolongation (%) at 1 µM [1]: 16%
- inhibition at 1 µM [1]: 0%

Structure (SMILES): CS(=O)(=O)Nc1ccc(C(CO)N2CCC(C(=O)c3ccc(Cl)cc3)CC2)cc1 (centres unmarked) [compound (3) B]
- LD50 [2]: 180 to 400 mg/kg
- APD90 prolongation (%) at 10 µM [1]: 11%
- inhibition at 10 µM [1]: 0%
- APD90 prolongation (%) at 1 µM [1]: 13%
- inhibition at 1 µM [1]: 0%
